In patent publication US20050202070A1, “Iodine/iodide-containing hot melt coatable adhesive, methods and uses therefor” (priority 2002, published 2005):
Where two headings read alike, the source gives them in different places.

Experiments:
[1] = Solubility of PVPI, I2/NaI and I2 in plasticizer compounds
[2] = cited from earlier work

Row | Compound | Solubility of 2% I2/2.4% NaI in the plasticizer [1] | Solubility of 18% I2 in the plasticizer [1] | Vapor pressure ([2]; at 25C) | Vapor pressure ([2]; at 90C) | Vapor pressure ([2]; at 184.4C (boils))
1 | CCCCNS(=O)(=O)c1ccccc1 [Plasthall BSA, N-n-butylbenzenesulfonamide] | Soluble | Soluble |  |  | 
2 | CCCCC(CC)C(=O)OCCOCCOCCOCCOC(=O)C(CC)CCCC (stereo not shown) [TerMerR 804, tetraethyleneglycol di-2ethylhexanoate] | Soluble | Soluble |  |  | 
3 | II [iodine] |  |  | 0.30 mmHG | 26.7 mmHg | 760 mmHg
